Reference: ChEMBL document CHEMBL2203001, “Flavonoid glycosides from the leaves of Allium victorialis var. platyphyllum and their anti-neuroinflammatory effects” (Bioorg Med Chem Lett, 2012)

Experiments:
[1] = Cytotoxicity against mouse BV2 cells assessed as cell viability at 20 uM by MTT assay relative to LPS-treated cells; assay type: cell-based, BV-2; conditions: read-out: Activity
BV-2 = test: Antineuroinflammatory activity against mouse BV2 cells assessed as inhibition of LPS-induced nitric oxide production after 24 hrs by Griess method; assay type: functional, cell-based; conditions: BV-2, 24 h

IC50 (BV-2) [µM] | SMILES | viability at 20 µM [1] [%]
48.5 | O=C(/C=C\c1ccc(O)cc1)O[C@H]1[C@H](Oc2c(-c3ccc(O[C@@H]4O[C@H](CO)[C@@H](O)[C@H](O)[C@H]4O)cc3)oc3cc(O[C@@H]4O[C@H](CO)[C@@H](O)[C@H](O)[C@H]4O)cc(O)c3c2=O)O[C@H](CO)[C@@H](O)[C@@H]1O [ALLIVICTOSIDE D] | 100
21.5 | COc1cc(/C=C/C(=O)O[C@H]2[C@H](Oc3cc(O)c4c(=O)c(O[C@@H]5O[C@H](CO)[C@@H](O)[C@H](O)[C@H]5O)c(-c5ccc(O)cc5)oc4c3)O[C@H](CO)[C@@H](O)[C@@H]2O)ccc1O | 106
44 | O=C(/C=C/c1ccc(O)cc1)O[C@H]1[C@H](Oc2c(-c3ccc(O[C@@H]4O[C@H](CO)[C@@H](O)[C@H](O)[C@H]4O)cc3)oc3cc(O[C@@H]4O[C@H](CO)[C@@H](O)[C@H](O)[C@H]4O)cc(O)c3c2=O)O[C@H](CO)[C@@H](O)[C@@H]1O [ALLIVICTOSIDE C] | 104
19.8 | O=c1c(O[C@@H]2O[C@H](CO)[C@@H](O)[C@H](O)[C@H]2O)c(-c2ccc(O)c(O)c2)oc2cc(O)cc(O)c12 [ISOQUERCETIN] | 97.3
28.9 | O=c1c(O[C@@H]2O[C@H](CO)[C@@H](O)[C@H](O)[C@H]2O)c(-c2ccc(O)cc2)oc2cc(O[C@@H]3O[C@H](CO)[C@@H](O)[C@H](O)[C@H]3O)cc(O)c12 | 106
29.9 | COc1cc(/C=C/C(=O)O[C@H]2[C@H](Oc3c(-c4ccc(O[C@H]5O[C@@H](CO)[C@H](O)[C@@H](O)[C@@H]5O)c(O)c4)oc4cc(O[C@@H]5O[C@H](CO)[C@@H](O)[C@H](O)[C@H]5O)cc(O)c4c3=O)O[C@H](CO)[C@@H](O)[C@@H]2O)ccc1O [ALLIVICTOSIDE H] | 105
47.2 | O=C(/C=C/c1ccc(O)cc1)O[C@H]1[C@H](Oc2c(-c3ccc(O)cc3)oc3cc(O[C@@H]4O[C@H](CO)[C@@H](O)[C@H](O)[C@H]4O)cc(O)c3c2=O)O[C@H](CO)[C@@H](O)[C@@H]1O | 105
16.3 | CNC(=N)NCCC[C@H](N)C(=O)O [TILARGININE] | 98.2
43.4 | COc1cc(/C=C/C(=O)O[C@H]2[C@H](Oc3c(-c4ccc(O[C@@H]5O[C@H](CO)[C@@H](O)[C@H](O)[C@H]5O)cc4)oc4cc(O[C@@H]5O[C@H](CO)[C@@H](O)[C@H](O)[C@H]5O)cc(O)c4c3=O)O[C@H](CO)[C@@H](O)[C@@H]2O)ccc1O | 101
55.6 | O=C(/C=C/c1ccc(O)cc1)O[C@H]1[C@H](Oc2c(-c3ccc(O[C@@H]4O[C@H](CO)[C@@H](O)[C@H](O)[C@H]4O)cc3)oc3cc(O)cc(O)c3c2=O)O[C@H](CO)[C@@H](O)[C@@H]1O [ALLIVICTOSIDE A] | 109
> 200 | O=C(/C=C/c1ccc(O)cc1)O[C@H]1[C@H](Oc2c(-c3ccc(O[C@H]4O[C@@H](CO)[C@H](O)[C@@H](O)[C@@H]4O)c(O)c3)oc3cc(O)cc(O)c3c2=O)O[C@H](CO)[C@@H](O)[C@@H]1O [ALLIVICTOSIDE G] | 101
33 | O=c1c(O[C@@H]2O[C@H](CO)[C@@H](O)[C@H](O)[C@H]2O)c(-c2ccc(O[C@@H]3O[C@H](CO)[C@@H](O)[C@H](O)[C@H]3O)cc2)oc2cc(O[C@@H]3O[C@H](CO)[C@@H](O)[C@H](O)[C@H]3O)cc(O)c12 | 102
122 | C[C@@H]1O[C@@H](OC[C@H]2O[C@@H](Oc3c(-c4ccc(O)cc4)oc4cc(O)cc(O)c4c3=O)[C@H](O)[C@@H](O)[C@@H]2O)[C@H](O)[C@H](O)[C@H]1O [NICOTIFLOROSIDE] | 104
49.5 | O=C(/C=C/c1ccc(O)cc1)O[C@@H]1[C@@H](O)[C@H](Oc2c(-c3ccc(O[C@@H]4O[C@H](CO)[C@@H](O)[C@H](O)[C@H]4O)cc3)oc3cc(O[C@@H]4O[C@H](CO)[C@@H](O)[C@H](O)[C@H]4O)cc(O)c3c2=O)O[C@H](CO)[C@H]1O [ALLIVICTOSIDE E] | 104
45.5 | O=c1c(O[C@@H]2O[C@H](CO)[C@@H](O)[C@H](O)[C@H]2O)c(-c2ccc(O[C@@H]3O[C@H](CO)[C@@H](O)[C@H](O)[C@H]3O)c(O)c2)oc2cc(O)cc(O)c12 | 100
51.7 | O=c1c(O)c(-c2ccc(O[C@@H]3O[C@H](CO)[C@@H](O)[C@H](O)[C@H]3O)c(O)c2)oc2cc(O[C@@H]3O[C@H](CO)[C@@H](O)[C@H](O)[C@H]3O)cc(O)c12 | 105
77.4 | O=c1c(O[C@@H]2O[C@H](CO)[C@@H](O)[C@H](O)[C@H]2O)c(-c2ccc(O)cc2)oc2cc(O)cc(O)c12 [ASTRAGALIN] | 106
20.4 | COc1cc(/C=C/C(=O)O[C@H]2[C@H](Oc3c(-c4ccc(O)cc4)oc4cc(O[C@@H]5O[C@H](CO)[C@@H](O)[C@H](O)[C@H]5O)cc(O)c4c3=O)O[C@H](CO)[C@@H](O)[C@@H]2O)ccc1O [ALLIVICTOSIDE F] | 100
170 | O=c1c(O[C@@H]2O[C@H](CO)[C@@H](O)[C@H](O)[C@H]2O)c(-c2ccc(O[C@@H]3O[C@H](CO)[C@@H](O)[C@H](O)[C@H]3O)cc2)oc2cc(O)cc(O)c12 | 99.1
20.7 | COc1cc(/C=C/C(=O)O[C@H]2[C@H](Oc3c(-c4ccc(O[C@@H]5O[C@H](CO)[C@@H](O)[C@H](O)[C@H]5O)cc4)oc4cc(O)cc(O)c4c3=O)O[C@H](CO)[C@@H](O)[C@@H]2O)ccc1O [ALLIVICTOSIDE B] | 107

SMILES | IC50 (BV-2) [µM] | viability at 20 µM [1] [%]
O=c1c(O)c(-c2ccc(O)cc2)oc2cc(O[C@@H]3O[C@H](CO)[C@@H](O)[C@H](O)[C@H]3O)cc(O)c12 | 39.1 | 107
